Measured values as given in US20230045421A1 (priority 2018, published 2023).

System: HBV rcDNA
Assay: HepDE19 assay with bDNA quantitation of HBV rcDNA
Type: cell-based, hepatitis B virus
Conditions: HepDE19 assay, inhibition of formation of rcDNA; read-out: DE-19bDNA EC50
Summary of the method: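 HepDE19 cells (HepG2-derived, Tet-regulated HBV replication) were deprived of tetracycline and then exposed to compounds for 7 days at 37 °C in 0.5% DMSO, 8-point titration from 25 μM. rcDNA was quantified by bDNA and EC50/EC90 came from 4-parameter fits. CC50 was measured by CellTiter-Glo ATP content on replicate plates after 4 days.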

Row | Compound | EC50
1 | CC(c1c[nH]c(=O)c2ccccc12)N(CCC#N)C(=O)Nc1ccc(F)c(Cl)c1 (single isomer, unassigned) [Compound 112, 3-(3-Chloro-4-fluorophenyl)-1-(2-cyanoethyl)-1-(1-(1-oxo-1,2-dihydroisoquinolin-4-yl)ethyl)urea] | 2800 nM
2 | CC(c1c[nH]c(=O)c2ccccc12)N(CCC#N)C(=O)Nc1ccc(F)c(Cl)c1 (single isomer, unassigned) [Compound 113, 3-(3-Chloro-4-fluorophenyl)-1-(2-cyanoethyl)-1-(1-(1-oxo-1,2-dihydroisoquinolin-4-yl)ethyl)urea] | 60 nM
3 | CC(c1c[nH]c(=O)c2ccccc12)N(CCCC#N)C(=O)Nc1ccc(F)c(Cl)c1 (single isomer, unassigned) [Compound 114, 3-(3-Chloro-4-fluorophenyl)-1-(3-cyanopropyl)-1-(1-(1-oxo-1,2-dihydroisoquinolin-4-yl)ethyl)urea] | 1900 nM
4 | CC(c1c[nH]c(=O)c2ccccc12)N(CCCC#N)C(=O)Nc1ccc(F)c(Cl)c1 (single isomer, unassigned) [Compound 115, 3-(3-Chloro-4-fluorophenyl)-1-(3-cyanopropyl)-1-(1-(1-oxo-1,2-dihydroisoquinolin-4-yl)ethyl)urea] | 10 nM
5 | CNC(=O)CCN(C(=O)Nc1ccc(F)c(Cl)c1)C(C)c1c[nH]c(=O)c2ccccc12 (single isomer, unassigned) [Compound 117, 3-(3-(3-Chloro-4-fluorophenyl)-1-(1-(1-oxo-1,2-dihydroisoquinolin-4-yl)ethyl)ureido)-N-methylpropanamide] | 13000 nM
6 | CNC(=O)CCN(C(=O)Nc1ccc(F)c(Cl)c1)C(C)c1c[nH]c(=O)c2ccccc12 (single isomer, unassigned) [Compound 118, 3-(3-(3-Chloro-4-fluorophenyl)-1-(1-(1-oxo-1,2-dihydroisoquinolin-4-yl)ethyl)ureido)-N-methylpropanamide] | 140 nM
7 | CC(c1c[nH]c(=O)c2ccccc12)N(CCS(N)(=O)=O)C(=O)Nc1ccc(F)c(Cl)c1 (single isomer, unassigned) [Compound 119, 2-(3-(3-Chloro-4-fluorophenyl)-1-(1-(1-oxo-1,2-dihydroisoquinolin-4-yl)ethyl)ureido) ethanesulfonamide] | 70 nM
8 | CC(c1c[nH]c(=O)c2ccccc12)N(CCS(N)(=O)=O)C(=O)Nc1ccc(F)c(Cl)c1 (single isomer, unassigned) [Compound 120, 2-(3-(3-Chloro-4-fluorophenyl)-1-(1-(1-oxo-1,2-dihydroisoquinolin-4-yl)ethyl)ureido) ethanesulfonamide] | 18000 nM
9 | COCCOCCN(C(=O)Nc1ccc(F)c(Cl)c1)C(C)c1cnc(OC)c2ccccc12 (single isomer, unassigned) [Compound 121, 3-(3-Chloro-4-fluorophenyl)-1-(2-(2-methoxyethoxy)ethyl)-1-(1-(1-methoxyisoquinolin-4-yl)ethyl)urea] | 23000 nM
10 | COCCOCCN(C(=O)Nc1ccc(F)c(Cl)c1)C(C)c1cnc(OC)c2ccccc12 (single isomer, unassigned) [Compound 122, 3-(3-Chloro-4-fluorophenyl)-1-(2-(2-methoxyethoxy)ethyl)-1-(1-(1-methoxyisoquinolin-4-yl)ethyl)urea] | 1200 nM

Same assay, conditions: read-out: DE-19bDNA EC50; HepDE19 assay, inhibition of formation of rcDNA

Row | Compound | EC50
11 | CCOCCN(C(=O)Nc1ccc(F)c(Cl)c1)C(C)c1c[nH]c(=O)c2ccccc12 (single isomer, unassigned) [Compound 109, 3-(3-Chloro-4-fluorophenyl)-1-(2-ethoxyethyl)-1-(1-(1-oxo-1,2-dihydroisoquinolin-4-yl)ethyl)urea] | 8000 nM
12 | CCOCCN(C(=O)Nc1ccc(F)c(Cl)c1)C(C)c1c[nH]c(=O)c2ccccc12 (single isomer, unassigned) [Compound 110, 3-(3-Chloro-4-fluorophenyl)-1-(2-ethoxyethyl)-1-(1-(1-oxo-1,2-dihydroisoquinolin-4-yl)ethyl)urea] | 170 nM
